Data taken from patent EP1611892A2, “Pharmaceutical compositions comprising drospirenone” (Schering Aktiengesellschaft, priority 2000, dated 2001).

Key:
Type in all cases: physicochemical
[1] = Solubility in water and aqueous buffers; settings: in water and aqueous buffers at various pH values
[2] = Chemical stability under acid and alkaline conditions
[3] = In vitro dissolution from a tablet preparation (USP XXIII Paddle Method); settings: drospirenone in micronized form; rapid dissolution defined as at least 70% over about 30 minutes from a 3 mg tablet in 900 ml of water at 37°C, 50 rpm

## C[C@]12CCC(=O)C=C1[C@@H]1C[C@@H]1[C@H]1[C@@H]3[C@@H]4C[C@@H]4[C@@]4(CCC(=O)O4)[C@@]3(C)CC[C@@H]12 [drospirenone, 6β,7β;15β;16β-dimethylene-3-oxo-17α-preg-4-ene-21,17-carbolactone]
[1]
  solubility: sparingly soluble
[2]; acid conditions
  stability under acid conditions: rearranged to an inactive isomer
[2]; alkaline conditions
  stability under alkaline conditions: hydrolysed
[3]
  dissolution of the active compound from the composition in vitro: rapid dissolution
